Among the data in patent US8101774B2, “Ester derivatives and medicinal use thereof” (Japan Tobacco Inc., priority 2004, dated 2012) are IC50 values, retold here.

The experiment deals with T1, Microsomal triglyceride transfer protein (MTP) from human small intestine microsome (Homo sapiens, UniProt P55157).
T1 construct: Human small intestine microsome was dialyzed against 10 mM phosphate buffer; tissue Tissue Transforming Technologies, Inc; host or cells: human small intestine microsome
The experiment is described as follows: Inhibition test of interliposomal triglyceride (TG) transfer activity by MTP. Format: biochemical. To be noted: purified MTP from human small intestine microsome, 37° C., 1.5 hours. On the procedure: Microsomal triglyceride transfer protein (MTP) from human small intestine microsome (manufactured by Tissue Transforming Technologies, Inc.) was purified in such a way described below. Human small intestine microsome was dialyzed against 10 mM phosphate buffer (300 mL, pH 6.8) twice for about 2 hours and once for further not less than 12 hours, at about 4° C. After dialysis, the mixture was centrifuged at 4° C. and 15,000×g for 5 minutes and then the supernatant was recovered. The previously recovered supernatant was purified by column chromatography on diethylaminoethyl (DEAE) Sepharose using FPLC (Fast Performance Liquid Chromatography) system, and the purified MTP was used for the test as described below.
Small unilamellar-vesicle (SUV) liposome (hereinafter described as donor, containing 0.25% (mol/mol) triolein and 5% (mol/mol) cardiolipin) constituted by triolein labeled with ^14C and non-labeled SUV liposome (hereinafter described as acceptor, containing […] triolein) were prepared in such a way described below.
Firstly, in order to prepare the donor, there were volatilized under a stream of nitrogen gas a phosphatidylcholine solution containing phosphatidylcholine labeled with ^3H, a cardiolipin solution, and a triolein solution containing triolein labeled with ^14C (each solution had been already dissolved in an appropriate organic solvent), or in order to prepare the acceptor, there were volatilized under nitrogen flow a phosphatidylcholine solution containing phosphatidylcholine labeled with ^3H and a cardiolipin solution (each solution had been already dissolved in an appropriate organic solvent). An appropriate amount of a reaction buffer (15 mM Tris-HCl buffer containing 1 mM EDTA.Na2, 40 mM NaCl, and 0.5% (w/v) bovine serum albumin, pH 7.4) was added thereto to be emulsified. The emulsions were treated with ultrasonication under ice-cooling and centrifuged at 4° C. and 159,000×g for 2 hours. Each of the resulting supernatant was used for donor or acceptor.
Each radioactivity in the acceptor and the donor was measured by liquid scintillation counter, and a mixed solution of the acceptor and the donor was prepared with a reaction buffer so as to be a donor-derived radioactivity of 16,000 dpm/400 μL and a acceptor-derived radioactivity of 4,000 dpm/[…]. 400 μL of the mixed solution of the donor and the acceptor, 45 μL of the reaction buffer, 50 μL of MTP (20 μg/mL), and 5 μL of a sample dissolved in DMSO (dimethyl sulfoxide) or 5 μL of DMSO was mixed (total amount: 500 μL). The mixture was incubated at 37° C. for 1.5 hours. After completion of the incubation, 1.25 mL of a suspension of DEAE cellulose (66.7% (v/v)) in 15 mM Tris-HCl buffer (pH 7.4) containing 1 mM EDTA.Na2 was added to the above solution. The mixture was centrifuged to separate the donor (adsorbed on the DEAE cellulose to precipitate) and the acceptor (the supernatant). The radioactivity in the acceptor was measured by liquid scintillation counter. The value obtained by subtracting the radioactivity in a blank group from the radioactivity in the acceptor of a DMSO group was determined as MTP-mediated TG transfer activity, and it was compared with the value obtained by subtracting the radioactivity in the blank group from the radioactivity in a sample group. Here, the blank was prepared by adding 10 mM phosphate buffer (pH 6.8) containing 250 mM NaCl in place of MTP. Inhibition rate (%) was calculated from values obtained according to the following equation. Inhibition rate(%)=(1 minus((radioactivity of sample group minus radioactivity of blank group)/(radioactivity of DMSO group minus radioactivity of blank group)))×100.
50% Inhibition rate (IC50) was determined on the basis of the above equation.

T1 sequence (P55157 19-894): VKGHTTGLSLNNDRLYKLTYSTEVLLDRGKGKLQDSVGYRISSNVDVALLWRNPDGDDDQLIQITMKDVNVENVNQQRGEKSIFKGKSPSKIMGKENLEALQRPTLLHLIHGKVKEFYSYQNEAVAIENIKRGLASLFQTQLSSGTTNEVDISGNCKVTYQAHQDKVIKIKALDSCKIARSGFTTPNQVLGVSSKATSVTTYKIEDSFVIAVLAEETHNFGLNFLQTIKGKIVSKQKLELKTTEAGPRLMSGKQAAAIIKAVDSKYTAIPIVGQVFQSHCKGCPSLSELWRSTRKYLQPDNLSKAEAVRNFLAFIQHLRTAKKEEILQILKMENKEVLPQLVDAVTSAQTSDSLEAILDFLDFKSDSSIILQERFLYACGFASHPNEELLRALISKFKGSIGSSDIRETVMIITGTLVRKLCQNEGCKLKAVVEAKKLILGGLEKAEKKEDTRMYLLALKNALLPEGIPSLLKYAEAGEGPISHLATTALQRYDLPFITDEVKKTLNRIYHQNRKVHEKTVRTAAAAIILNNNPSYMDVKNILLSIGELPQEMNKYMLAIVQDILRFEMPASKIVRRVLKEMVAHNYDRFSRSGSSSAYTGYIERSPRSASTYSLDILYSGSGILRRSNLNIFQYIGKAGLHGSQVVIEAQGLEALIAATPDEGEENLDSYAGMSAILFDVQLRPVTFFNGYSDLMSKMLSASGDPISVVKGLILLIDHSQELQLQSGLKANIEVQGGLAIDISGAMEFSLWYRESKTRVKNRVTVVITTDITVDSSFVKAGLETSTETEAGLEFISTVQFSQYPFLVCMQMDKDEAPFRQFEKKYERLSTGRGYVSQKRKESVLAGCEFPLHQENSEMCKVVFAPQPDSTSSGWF
T1 sequence (P07237 18-508 partner): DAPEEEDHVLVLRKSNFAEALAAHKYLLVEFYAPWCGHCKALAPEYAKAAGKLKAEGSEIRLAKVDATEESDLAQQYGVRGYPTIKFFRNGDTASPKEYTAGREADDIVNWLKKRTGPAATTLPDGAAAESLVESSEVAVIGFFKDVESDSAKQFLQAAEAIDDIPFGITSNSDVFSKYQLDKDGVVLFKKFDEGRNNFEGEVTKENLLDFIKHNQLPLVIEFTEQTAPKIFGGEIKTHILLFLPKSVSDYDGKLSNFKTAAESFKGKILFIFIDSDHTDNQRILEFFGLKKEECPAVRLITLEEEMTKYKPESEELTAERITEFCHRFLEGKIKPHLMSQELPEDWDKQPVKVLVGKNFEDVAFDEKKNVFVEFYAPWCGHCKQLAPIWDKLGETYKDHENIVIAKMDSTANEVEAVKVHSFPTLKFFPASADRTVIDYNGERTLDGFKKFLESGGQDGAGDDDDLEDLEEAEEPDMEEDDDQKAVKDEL

The term IC50 denotes the concentration needed to halve the response being measured. Low values mean greater potency in that assay, high ones weaker potency in that assay. Regarding “3-chloro-4-[4-(3-dimethylcarbamoyl-4-{[6-methyl-2-(4-trifluoromethylphenyl)pyridine-3-carbonyl]amino}phenyl)butyryloxy]-5-methoxybenzoic acid methyl ester sulfonate [Compound 1-56]”, the IC50 is < 10 nM.

`CN(C)C(=O)c1cc(CCC(=O)Oc2ccccc2)ccc1NC(=O)c1ccccc1-c1ccc(C(F)(F)F)cc1` [Compound 1-1, 3-{3-dimethylcarbamoyl-4-[(4′-trifluoromethylbiphenyl-2-carbonyl)amino]phenyl}propionic acid phenyl ester] showed an IC50 of 10 to 100 nM.

Consider `Cc1noc(-c2ccc(OC(=O)CCCc3ccc(NC(=O)c4ccccc4-c4ccc(C(F)(F)F)cc4)c(C(=O)N(C)C)c3)cc2)n1` [Compound 1-2, 4-{3-dimethylcarbamoyl-4-[(4′-trifluoromethylbiphenyl-2-carbonyl)amino]phenyl}butyric acid 4-(3-methyl-[1,2,4]oxadiazol-5-yl)phenyl ester], for which the IC50 was < 10 nM.

The compound `CN(C)C(=O)c1cc(CC(=O)Oc2ccccc2)ccc1NC(=O)c1ccccc1-c1ccc(C(F)(F)F)cc1` [Compound 1-3, {3-dimethylcarbamoyl-4-[(4′-trifluoromethylbiphenyl-2-carbonyl)amino]phenyl}acetic acid phenyl ester] had an IC50 of 100 to 1000 nM.

`CN(C)C(=O)c1cc(CC(=O)Oc2ccc(F)cc2)ccc1NC(=O)c1ccccc1-c1ccc(C(F)(F)F)cc1` [Compound 1-4, {3-dimethylcarbamoyl-4-[(4′-trifluoromethylbiphenyl-2-carbonyl)amino]phenyl}acetic acid 4-fluorophenyl ester] showed an IC50 of 100 to 1000 nM.

Take `COC(=O)c1ccc(OC(=O)CCCc2ccc(NC(=O)c3ccccc3-c3ccc(C(F)(F)F)cc3)c(C(=O)N(C)C)c2)cc1` [Compound 1-5]: the IC50 was < 10 nM.

Consider `CCOC(=O)c1ccc(OC(=O)CCCc2ccc(NC(=O)c3ccccc3-c3ccc(C(F)(F)F)cc3)c(C(=O)N(C)C)c2)cc1` [Compound 1-6, 4-(4-{3-dimethylcarbamoyl-4-[(4′-trifluoromethylbiphenyl-2-carbonyl)amino]phenyl}butyryloxy)benzoic acid ethyl ester], for which the IC50 was < 10 nM.

On to `CC(C)OC(=O)c1ccc(OC(=O)CCCc2ccc(NC(=O)c3ccccc3-c3ccc(C(F)(F)F)cc3)c(C(=O)N(C)C)c2)cc1` [Compound 1-7, 4-(4-{3-dimethylcarbamoyl-4-[(4′-trifluoromethylbiphenyl-2-carbonyl)amino]phenyl}butyryloxy)benzoic acid isopropyl ester], for which the IC50 is < 10 nM.

As to `CCCOC(=O)c1ccc(OC(=O)CCCc2ccc(NC(=O)c3ccccc3-c3ccc(C(F)(F)F)cc3)c(C(=O)N(C)C)c2)cc1` [Compound 1-8, 4-(4-{3-dimethylcarbamoyl-4-[(4′-trifluoromethylbiphenyl-2-carbonyl)amino]phenyl}butyryloxy) benzoic acid propyl ester], the IC50 was < 10 nM.

As for `COC(=O)c1ccc(OC(=O)CCCc2ccc(NC(=O)c3ccc(C)cc3-c3ccc(C(F)(F)F)cc3)c(C(=O)N(C)C)c2)cc1` [Compound 1-9, 4-(4-{3-dimethylcarbamoyl-4-[(5-methyl-4′-trifluoromethylbiphenyl-2-carbonyl)amino]phenyl}butyryloxy) benzoic acid methyl ester], the IC50 is < 10 nM.

Regarding `COC(=O)c1ccc(OC(=O)CCCc2ccc(NC(=O)c3ccccc3-c3ccc(C(F)(F)F)cc3)c(C(=O)N(C)C)c2)c(F)c1` [Compound 1-10, 4-(4-{3-dimethylcarbamoyl-4-[(4′-trifluoromethylbiphenyl-2-carbonyl)amino]phenyl}butyryloxy)-3-fluoro benzoic acid methyl ester], the IC50 is < 10 nM.

Take `COC(=O)c1ccc(OC(=O)CCCc2ccc(NC(=O)c3ccccc3-c3ccc(C(F)(F)F)cc3)c(C(=O)N(C)C)c2)c(Cl)c1` [Compound 1-11, 3-chloro-4-(4-{3-dimethylcarbamoyl-4-[(4′-trifluoromethylbiphenyl-2-carbonyl)amino]phenyl}butyryloxy)benzoic acid methyl ester]: the IC50 is < 10 nM.
